4 molecules from PubChem BioAssay AID1259407 (Chemical Carcinogenesis Research Information System (CCRIS), 2018) can be followed below.

The source made the active and inactive calls. The rule behind the calls is not given here.

The series deals with CCRIS mutagenicity, Ames/micronucleus/aberration tests. The series can be described thus: CCRIS mutagenicity studies. The conditions noted are these: Test System: AMES SALMONELLA TYPHIMURIUM
Where [1] appears, read: Strain/Indicator: TA98, Metabolic Activation: NONE, Method: STANDARD PLATE.
[2] abbreviates: Strain/Indicator: TA98, Metabolic Activation: RAT, LIVER, S-9, AROCLOR 1254, Method: STANDARD PLATE.
The mark [3] stands for this setting: Strain/Indicator: TA100, Metabolic Activation: NONE, Method: STANDARD PLATE.
Setting [4] is: Strain/Indicator: TA100, Metabolic Activation: RAT, LIVER, S-9, AROCLOR 1254, Method: STANDARD PLATE.
Where [5] appears, read: Strain/Indicator: TA1535, Metabolic Activation: NONE, Method: STANDARD PLATE.
Where [6] appears, read: Strain/Indicator: TA1535, Metabolic Activation: RAT, LIVER, S-9, AROCLOR 1254, Method: STANDARD PLATE.
The mark [7] stands for this setting: Strain/Indicator: TA1537, Metabolic Activation: NONE, Method: STANDARD PLATE.
[8] abbreviates: Strain/Indicator: TA1537, Metabolic Activation: RAT, LIVER, S-9, AROCLOR 1254, Method: STANDARD PLATE.
Setting [9] is: Strain/Indicator: TA1538, Metabolic Activation: NONE, Method: STANDARD PLATE.
Setting [10] is: Strain/Indicator: TA1538, Metabolic Activation: RAT, LIVER, S-9, AROCLOR 1254, Method: STANDARD PLATE.

Consider `CCCCCCCCSCn1cc[n+](C)c1`, for which the mutagenic call under setting [1] was “inactive; negative”; the mutagenic call under setting [2] was “inactive; negative”; the mutagenic call under setting [3] is “inactive; negative”; the mutagenic call under setting [4] is “inactive; negative”; the mutagenic call under setting [5] is “inactive; negative”; the mutagenic call under setting [6] was “inactive; negative”. Also, the mutagenic call reads like this: under setting [7], “inactive; negative”; under setting [8], “inactive; negative”; under setting [9], “inactive; negative”; under setting [10], “inactive; negative”.
Take `CC(=O)Nc1ccc(-c2ccccc2)cc1`: the mutagenic call was “active; positive” (Strain/Indicator: TA98, Metabolic Activation: RAT, LIVER, S-9, KC500 OR PHENOBARBITAL, Method: LIQUID SUSPENSION); “active; positive” (Strain/Indicator: TA100 (1,8-DNP), Metabolic Activation: MOUSE LIVER S-9, AROCLOR 1254, 10%, Method: PREINCUBATION); “active; positive” (Strain/Indicator: TA100 (1,8-DNP), Metabolic Activation: RAT LIVER S-9, AROCLOR 1254, 10%, Method: PREINCUBATION); “active; positive” (Strain/Indicator: TA100, Metabolic Activation: MOUSE LIVER S-9, AROCLOR 1254, 10%, Method: PREINCUBATION); “active; positive” (Strain/Indicator: TA100, Metabolic Activation: RAT LIVER S-9, AROCLOR 1254, 10%, Method: PREINCUBATION); “active; positive” (Strain/Indicator: TA100, Metabolic Activation: RAT, LIVER, S-9, KC500 OR PHENOBARBITAL, Method: LIQUID SUSPENSION). For the same molecule, the mutagenic call (Strain/Indicator: YG1029, Metabolic Activation: MOUSE LIVER S-9, AROCLOR 1254, 10%, Method: PREINCUBATION) was “active; positive” and the mutagenic call (Strain/Indicator: YG1029, Metabolic Activation: RAT LIVER S-9, AROCLOR 1254, 10%, Method: PREINCUBATION) is “active; positive”.
As to `Cc1cc(C(O)c2ncc([N+](=O)[O-])n2C)c(O)c(C(C)(C)C)c1` (stereo not given), the mutagenic call runs as follows: under setting [1], “inactive; negative”; under setting [2], “inactive; negative”; under setting [3], “inactive; negative”; under setting [4], “inactive; negative”; under setting [5], “inactive; negative”; under setting [6], “inactive; negative”. For the same molecule, the mutagenic call runs as follows: under setting [7], “inactive; negative”; under setting [8], “inactive; negative”; under setting [9], “inactive; negative”; under setting [10], “inactive; negative”.
Regarding `CC12CCC=C(C=O)C1(C=O)C2` (stereo not given), the mutagenic call was “active; positive” under setting [1] and “active; positive” under setting [3].
